Test results taken from US9643970B2, “Substituted imidazo [1,5-a]pyrazines as PDE9 inhibitors” (H Lundbeck A/S, priority 2012, dated 2017).
Like-named read-outs stand apart in the source and are kept apart here.

Target: PDE9 (Homo sapiens, UniProt O76083)
Test: PDE9 inhibition assay
Type: biochemical
Experimental: Reactions are initiated by addition of the cyclic nucleotide substrate, and reactions are allowed to proceed for one hr at room temperature before being terminated through mixing with 15 uL 8 mg/mL yttrium silicate SPA beads (Amersham). […] IC50 values were calculated by non linear regression using XLfit (IDBS).

[1] = SPA assay, 10 nM 3H-cAMP, 1 hour incubation, read-out: IC50

PDE9, sequence (O76083 whole entry): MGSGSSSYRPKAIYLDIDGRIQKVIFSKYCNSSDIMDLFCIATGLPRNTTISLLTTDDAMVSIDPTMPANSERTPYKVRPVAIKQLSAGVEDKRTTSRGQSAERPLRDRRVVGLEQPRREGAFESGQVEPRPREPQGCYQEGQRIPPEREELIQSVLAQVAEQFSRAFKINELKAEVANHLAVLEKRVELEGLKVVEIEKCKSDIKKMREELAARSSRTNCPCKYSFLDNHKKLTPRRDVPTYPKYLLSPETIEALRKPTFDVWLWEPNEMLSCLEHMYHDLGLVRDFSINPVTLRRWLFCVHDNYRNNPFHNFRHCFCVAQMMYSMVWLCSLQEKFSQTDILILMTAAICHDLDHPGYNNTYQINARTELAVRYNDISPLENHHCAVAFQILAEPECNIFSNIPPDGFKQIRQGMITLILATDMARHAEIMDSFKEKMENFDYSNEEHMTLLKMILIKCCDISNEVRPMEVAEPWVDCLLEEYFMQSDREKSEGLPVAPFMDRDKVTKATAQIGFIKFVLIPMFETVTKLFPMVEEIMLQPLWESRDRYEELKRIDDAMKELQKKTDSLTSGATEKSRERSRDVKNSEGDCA

| Structure (SMILES) | IC50 [1] [nM] | IC50 [nM] |
| --- | --- | --- |
| CC1CN(Cc2ccc(F)cc2)CC1c1cn2c(-c3ccc(Cl)cc3)nc(Br)c2c(=O)[nH]1 (centres unmarked) [Compound 111, 1-bromo-3-(4-chlorophenyl)-6-[1-[(4-fluorophenyl)methyl]-4-methyl-pyrrolidin-3-yl]-7h-imidazo[1,5-a]pyrazin-8-one] | 74 |  |
| COC1CN(C(C)C2(C)Cn3c(cnc3C3CCOCC3)C(=O)N2)C1 (centres unmarked) [Compound 112, 6-[1-(3-methoxyazetidin-1-yl)ethyl]-6-methyl-3-tetrahydropyran-4-yl-7h-imidazo[1,5-a]pyrazin-8-one] | 22 |  |
| CC1CN(CC2CCCCC2)CC1c1cn2c(C3CCOCC3)ncc2c(=O)[nH]1 (centres unmarked) [Compound 115, 6-[1-(cyclohexylmethyl)-4-methyl-pyrrolidin-3-yl]-3-tetrahydropyran-4-yl-7h-imidazo[1,5-a]pyrazin-8-one] | 37 |  |
| CC(C)OC1CN(C(C)c2cn3c(-c4ccc(F)cc4)ncc3c(=O)[nH]2)C1 (centres unmarked) [Compound 116, 3-(4-fluorophenyl)-6-[1-(3-isopropoxyazetidin-1-yl)ethyl]-7h-imidazo[1,5-a]pyrazin-8-one] |  | 22 |
| CC(C)OC1CN(C(C)c2cn3c(C4CCOCC4)ncc3c(=O)[nH]2)C1 (centres unmarked) [Compound 117, 6-[1-(3-isopropoxyazetidin-1-yl)ethyl]-3-tetrahydropyran-4-yl-7h-imidazo[1,5-a]pyrazin-8-one] |  | 93 |
| CC(c1cn2c(-c3ccc(F)cc3)ncc2c(=O)[nH]1)N1CC(Oc2ccc(OC(F)(F)F)cc2)C1 (centres unmarked) [Compound 120, 3-(4-fluorophenyl)-6-[1-[3-[4-(trifluoromethoxy)phenoxy]azetidin-1-yl]ethyl]-7h-imidazo[1,5-a]pyrazin-8-one] | 35 |  |
| O=c1[nH]c(CN2CCC(c3cccc(C(F)(F)F)c3)C2)cn2c(C3CCOC3)ncc12 (centres unmarked) [Compound 125, 3-tetrahydrofuran-3-yl-6-[[3-[3-(trifluoromethyl)phenyl]pyrrolidin-1-yl]methyl]-7h-imidazo[1,5-a]pyrazin-8-one] | 48 |  |
| COc1ccc(C2CN(C(C)c3cn4c(-c5ccc(F)cc5)ncc4c(=O)[nH]3)C2)cc1 (centres unmarked) [Compound 126, 3-(4-fluorophenyl)-6-[1-[3-(4-methoxyphenyl)azetidin-1-yl]ethyl]-7h-imidazo[1,5-a]pyrazin-8-one] |  | 70 |

The remaining lines, values ahead:

| IC50 [1] [nM] | IC50 [nM] | Structure (SMILES) |
| --- | --- | --- |
| 36 |  | CC1CN(Cc2ccc(F)cc2)CC1c1cn2c(-c3ccc(Cl)cc3)ncc2c(=O)[nH]1 (centres unmarked) [Compound 110, 3-(4-chlorophenyl)-6-[1-[(4-fluorophenyl)methyl]-4-methyl-pyrrolidin-3-yl]-7h-imidazo[1,5-a]pyrazin-8-one] |
| 9 |  | Cc1ccc(COC2CN(Cc3cn4c(-c5ccc(F)cc5)ncc4c(=O)[nH]3)C2)cc1 [Compound 113, 3-(4-fluorophenyl)-6-[[3-(p-tolylmethoxy)azetidin-1-yl]methyl]-7h-imidazo[1,5-a]pyrazin-8-one] |
| 7 |  | CC1CN(Cc2ccccn2)CC1c1cn2c(-c3ccc(F)cc3)ncc2c(=O)[nH]1 (centres unmarked) [Compound 114, 3-(4-fluorophenyl)-6-[4-methyl-1-(2-pyridylmethyl)pyrrolidin-3-yl]-7h-imidazo[1,5-a]pyrazin-8-one] |
| 42 |  | O=c1[nH]c(CN2CC(Oc3ccc(Cl)cc3)C2)cn2c(-c3ccc(F)cc3)ncc12 [Compound 118, 6-[[3-(4-chlorophenoxy)azetidin-1-yl]methyl]-3-(4-fluorophenyl)-7h-imidazo[1,5-a]pyrazin-8-one] |
| 191 |  | CC1CN(Cc2ccc(F)cc2)CC1c1cn2c(-c3ccc(OC(F)(F)F)cc3)ncc2c(=O)[nH]1 (centres unmarked) [Compound 119, 6-[1-[(4-fluorophenyl)methyl]-4-methyl-pyrrolidin-3-yl]-3-[4-(trifluoromethoxy)phenyl]-7h-imidazo[1,5-a]pyrazin-8-one] |
| 41 |  | O=c1[nH]c(CN2CC(Oc3c(F)cccc3F)C2)cn2c(-c3ccc(F)cc3)ncc12 [Compound 121, 6-[[3-(2,6-difluorophenoxy)azetidin-1-yl]methyl]-3-(4-fluorophenyl)-7h-imidazo[1,5-a]pyrazin-8-one] |
|  | 38 | COc1ccc(C2CN(Cc3cn4c(-c5cc(F)cc(F)c5)ncc4c(=O)[nH]3)C2)cc1 [Compound 122, 3-(3,5-difluorophenyl)-6-[[3-(4-methoxyphenyl)azetidin-1-yl]methyl]-7h-imidazo[1,5-a]pyrazin-8-one] |
|  | 57 | COc1ccc(C2CN(Cc3cn4c(-c5ccc(F)cc5)ncc4c(=O)[nH]3)C2)cc1 [Compound 123, 3-(4-fluorophenyl)-6-[[3-(4-methoxyphenyl)azetidin-1-yl]methyl]-7h-imidazo[1,5-a]pyrazin-8-one] |
| 72 |  | CC(c1cn2c(-c3ccc(F)cc3)ncc2c(=O)[nH]1)N1CC(c2ccc(F)cc2)C1 (centres unmarked) [Compound 124, 3-(4-fluorophenyl)-6-[1-[3-(4-fluorophenyl)azetidin-1-yl]ethyl]-7h-imidazo[1,5-a]pyrazin-8-one] |
